The values that follow come from patent publication US5157052A, “Method for inhibiting IgE production” (priority 1990, dated 1992).

The test system of one experiment is CD23. The experiment can be described thus: Splenocyte cell surface density/distribution (FACS): CD23. It counts as in vivo, mouse (Balb/c female). On the procedure:
(§1) One group of 4 unstimulated Balb/c female mice is injected with PBS (Group A). Another (Group B) is injected with 20 μg (±) methyl 11α,16-dihydroxy-16-methyl-9-oxoprosta-5Z,13E-dien-1-oate as in Example 13. […] A 3 cm incision is made with a scalpel above the left hip, and the spleen is cut free from adjoining tissue and placed in a 100 mn plastic culture dish containing 10 ml PBS. The splenic cells are then made into a suspension, by rubbing the spleens between the rough, frosted ends of microscope slides repeatedly until the only remaining particulate matter is connective tissue. Cells are transferred to a 15 ml conical polystyrene tube and centrifuged in a centrifuge at 1200 rpm for 5 minutes. The supernatant is discarded by aspiration and the cell pellet is resuspended in 10 ml PBS, then centrifuged at 1200 rpm for 5 minutes. The supernatant is aspirated and the cell pellet is resuspended in 15 mM Tris, 140 mM Ammonium Chloride, to lyse red blood cells. After incubating at room temperature for 10 minutes the cell suspension is centrifuged at 1200 rpm for 10 minutes. The supernatant is discarded and the cell pellet is resuspended in 10 ml FACS Buffer (PBS containing 0.1% BSA and 0.1% Sodium Azide). The cell suspension is filtered through sterile glass wool plugged in the top of a pasteur pipet. Cells in the flow through are counted using a hemacytometer, then the cell suspension is centrifuged at 1200 rpm for 5 minutes. The supernatant is discarded and the cell pellet is resuspended in a volume of FACS Buffer that will yield 4×10^7 cells/ml. 10 μl (4×10^5 cells) is added to each well of a 96-well V-bottom plate. 25 μl of diluted monoclonal antibody directed against splenocyte cell surface proteins is added to each well: Major Histocompatability Complex (MHC) Class II (M5114, ATCC, Rockville Md.), MHC Class I (M1/42, ATCC), Anti-IgD (JA12.5, ATCC, Rockville, Md.), Thymocyte (Thy)-1 (JIJ, ATCC), B220 (14.8, ATCC), Kappa light chain (187, ATCC), IL-2 Receptor (7D4, ATCC), Lyt-1 (7.313, ATCC) and CD23 (biotinylated B3B4) and incubated on ice for 30 minutes. 100 μl 10% BSA 0.1% sodium azide is added to each well, then the plates are centrifuged at 1200 rpm for 10 minutes. The liquid is removed by aspiration and the cell pellets are resuspended in 100 μl FACS Buffer, and centrifuged at 1200 rpm for 5 minutes. […] Samples are transferred to individual tubes and 10,000 cells are analyzed. Using the Lysis software (Becton Dickinson, Mountain View, Calif.) the mean channel log fluorescence and percent positive cells are determined for the entire cell population. […]

In another experiment the test system is IgD. The experiment in a line: Splenocyte cell surface density/distribution (FACS): IgD. The format is in vivo, mouse (Balb/c female). On the procedure:
as §1

As to `CCCCC(C)(O)C/C=C/[C@H]1[C@H](O)CC(=O)[C@@H]1C/C=C\CCCC(=O)OC` (mixture of isomers) [(±) methyl 11α,16-dihydroxy-16-methyl-9-oxoprosta-5Z,13E-dien-1-oate], the “Percentage Positive Cells” value in the experiment with CD23 (anti-IgD stimulated mice, 20 μg days 3 and 4, day 7 (PBS 20.4)) is listed as 11.6 ± 1.6%; in the experiment with CD23 (unstimulated mice, 20 μg (PBS 46.6)) it was 44.2 ± 6.6%; in the experiment on IgD (anti-IgD stimulated mice, 20 μg days 3 and 4, day 7 (PBS 21.9)) it was 15.6 ± 8.4%; with IgD (unstimulated mice, 20 μg (PBS printed 1.4)), 51.8 ± 3.7%. Besides, the “Mean Channel Log Fluorescence” value in the experiment on CD23 (anti-IgD stimulated mice, 20 μg days 3 and 4, day 7 (PBS 99)) worked out at 95 ± 1.5; in the experiment on CD23 (unstimulated mice, 20 μg (PBS 95)), 94 ± 3.2; in the experiment on IgD (anti-IgD stimulated mice, 20 μg days 3 and 4, day 7 (PBS 107)) it was 98 ± 0.5; in the experiment with IgD (unstimulated mice, 20 μg (PBS 130)), 132 ± 3.5.
